In patent publication US11096390B2, “Method of controlling weeds in a cultivation area of field corn” (SUMITOMO CHEMICAL COMPANY, LIMITED, priority 2019, dated 2021):

Assays:
popcorn = test: Pot test, soil spray after sowing: crop injury on popcorn; assay type: in vivo, Zea mays var. everta
Source text: (§1) The evaluation of the herbicidal effect and crop injury is classified into 0 to 100, where the numeral “0” indicates no or little difference in the state of germination or growth of weeds or corn under test at the time of examination as comparison with untreated weeds or corn, respectively and the numeral “100” indicates the complete death of weeds or corn under test or the complete inhibition of their germination or growth of weeds or corn under test.
(§2) Three varieties of field corn, two varieties of popcorn, two varieties of sweet corn, two varieties of waxy corn, palmer amaranth, kochia and large crabgrass were sown to a pot filled with a soil. On the next day, a trifludimoxazin spray liquid (prepared by diluting an emuslfiable concentrate of trifludimoxazin with water) was uniformly sprayed onto the pot at the amount of 200 L per hectare so that the application rate of trifludimoxazin might be 50 g per hectare. 12 days after treatment, herbicidal effects on weeds and injury on corns were investigated. As a result, the herbicidal effect on each of the three weeds was 100.
as §2, with “Four” for “Three”, “sweet” for “sweet corn, two varieties of waxy”, “25” for “50”, “13” for “12”

palmer amaranth = test: Pot test, soil spray after sowing: herbicidal effect on palmer amaranth; assay type: in vivo, Amaranthus palmeri
Source text: as §1, §2
(§3) Four varieties of field corn, two varieties of popcorn, two varieties of sweet corn, palmer amaranth, kochia and large crabgrass were sown to a pot filled with a soil. […]

[1] = test system: field corn, popcorn, sweet corn, waxy corn; test: Example 1 pot test, spray two days after sowing: injuries on various corns; assay type: in vivo, Zea mays; conditions: 25 or 50 g per hectare; applied two days after sowing; 21 days after the treatment
Source text: as §1
(§4) A pot is filled with a soil, and then field corn, popcorn, sweet corn, waxy corn, palmer amaranth, waterhemp, kochia, common ragweed and marestail are sown thereto. Two days later, trifludimoxazin spray liquid (prepared by diluting trifludimoxazin formulation (an aqueous suspension concentrate containing 500 g/L of trifludimoxazin) with water) is uniformly applied onto the pot using sprayer at the amount of 200 L per hectare so that the application rate of trifludimoxazin may be 25 or 50 g per hectare. 21 days after the treatment, herbicidal effects and injuries on various corns are investigated.

[2] = test system: palmer amaranth, waterhemp, kochia, common ragweed and marestail; test: Example 2 pot test, spray the day before sowing corns: herbicidal effects on weeds; assay type: in vivo; conditions: 25 or 50 g per hectare; applied on day of weed sowing, corns sown next day; 21 days after sowing corns
Source text: as §1
as §4, with “Palmer” for “field corn, popcorn, sweet corn, waxy corn, palmer”, “On the same day,” for “Two days later,”, “hectare. On the next day, field corn, popcorn, sweet corn, and waxy corn are sown.” for “hectare.”, “sowing corns,” for “the treatment,”

waxy corn = test: Pot test, soil spray after sowing: crop injury on waxy corn; assay type: in vivo, Zea mays var. ceratina; conditions: 50 g/ha, 12 days after treatment
Source text: as §1, §2

kochia = test: Pot test, soil spray after sowing: herbicidal effect on kochia; assay type: in vivo, Kochia scoparia
Source text: as §1, §2, §3

sweet corn = test: Pot test, soil spray after sowing: crop injury on sweet corn; assay type: in vivo, Zea mays var. saccharata
Source text: as §1, §2
as §2, with “Four” for “Three”, “sweet” for “sweet corn, two varieties of waxy”, “25” for “50”, “13” for “12”

[3] = test system: field corn, popcorn, sweet corn, and waxy corn; test: Example 2 pot test, spray the day before sowing corns: injuries on various corns; assay type: in vivo, Zea mays; conditions: 25 or 50 g per hectare; applied the day before sowing corns; 21 days after sowing corns
Source text: as §1
as §4, with “Palmer” for “field corn, popcorn, sweet corn, waxy corn, palmer”, “On the same day,” for “Two days later,”, “hectare. On the next day, field corn, popcorn, sweet corn, and waxy corn are sown.” for “hectare.”, “sowing corns,” for “the treatment,”

[4] = test system: palmer amaranth, waterhemp, kochia, common ragweed and marestail; test: Example 1 pot test, spray two days after sowing: herbicidal effects on weeds; assay type: in vivo; conditions: 25 or 50 g per hectare; applied two days after sowing; 21 days after the treatment
Source text: as §1, §4

large crabgrass = test: Pot test, soil spray after sowing: herbicidal effect on large crabgrass; assay type: in vivo, Digitaria sanguinalis
Source text: as §1, §2, §3

field corn = test: Pot test, soil spray after sowing: crop injury on field corn; assay type: in vivo, Zea mays var. indentata and/or Zea mays var. indurata
Source text: as §1, §2
as §2, with “Four” for “Three”, “sweet” for “sweet corn, two varieties of waxy”, “25” for “50”, “13” for “12”

[5] = 25 g per hectare, 13 days after treatment
[6] = 50 g per hectare, 12 days after treatment

C#CCN1C(=O)C(F)(F)Oc2cc(F)c(-n3c(=O)n(C)c(=S)n(C)c3=O)cc21 [trifludimoxazin]
Injury score on corn (0 to 100) (popcorn; Popcorn Maru-pop, 25 g/ha, 13 days after treatment): 20 | Injury score on corn (0 to 100) (popcorn; Popcorn Maru-pop, 50 g/ha, 12 days after treatment): 50 | Injury score on corn (0 to 100) (popcorn; Popcorn Yuki-pop, 25 g/ha, 13 days after treatment): 20 | Injury score on corn (0 to 100) (popcorn; Popcorn Yuki-pop, 50 g/ha, 12 days after treatment): 40 | herbicidal effect (0 to 100) (palmer amaranth; [5]): 100 | herbicidal effect (0 to 100) (palmer amaranth; [6]): 100 | injury on field corn compared with popcorn, sweet corn and waxy corn [1]: less than those on popcorn, sweet corn and waxy corn | herbicidal effects on all weeds [2]: High herbicidal effects | Injury score on corn (0 to 100) (waxy corn; Waxy corn Ki-mochi): 30 | Injury score on corn (0 to 100) (waxy corn; Waxy corn Shiro-mochi): 40 | herbicidal effect (0 to 100) (kochia; [5]): 100 | herbicidal effect (0 to 100) (kochia; [6]): 100 | Injury score on corn (0 to 100) (sweet corn; Sweet corn Ohisama, 25 g/ha, 13 days after treatment): 20 | Injury score on corn (0 to 100) (sweet corn; Sweet corn Ohisama, 50 g/ha, 12 days after treatment): 40 | Injury score on corn (0 to 100) (sweet corn; Sweet corn Rancher 82, 25 g/ha, 13 days after treatment): 30 | Injury score on corn (0 to 100) (sweet corn; Sweet corn Rancher 82, 50 g/ha, 12 days after treatment): 30 | injury on field corn compared with popcorn, sweet corn and waxy corn [3]: less than those on popcorn, sweet corn and waxy corn | herbicidal effects on all weeds [4]: High herbicidal effects | herbicidal effect (0 to 100) (large crabgrass; [5]): 100 | herbicidal effect (0 to 100) (large crabgrass; [6]): 100 | Injury score on corn (0 to 100) (field corn; Field corn DKC5632, 25 g/ha, 13 days after treatment): 0 | Injury score on corn (0 to 100) (field corn; Field corn DKC5632, 50 g/ha, 12 days after treatment): 10 | Injury score on corn (0 to 100) (field corn; Field corn Koshu, 25 g/ha, 13 days after treatment): 0 | Injury score on corn (0 to 100) (field corn; Field corn Koshu, 50 g/ha, 12 days after treatment): 5 | Injury score on corn (0 to 100) (field corn; Field corn MAS40F, 25 g/ha, 13 days after treatment): 5 | Injury score on corn (0 to 100) (field corn; Field corn Pioneer 2088, 25 g/ha, 13 days after treatment): 0 | Injury score on corn (0 to 100) (field corn; Field corn Pioneer 2088, 50 g/ha, 12 days after treatment): 5
